Values after ≈ are worked out from the molar mass of the structure shown. Like-named read-outs stand apart in the source and are kept apart here.
What was measured:
A. calcoaceticos T59 = assay: MIC against standard strains (Test Example 3); type: cell-based
Method: (§1) By using each test strain cultured overnight at 37°C in a Muller-Hinton broth, there was prepared a bacterial solution with a bacterial cell population of 1 x 10^6 CFU/mi of the same bouillon. The bacterial solution was inoculated into the Muller-Hinton agar media each containing respectively one test agent and, after overnight incubation at 37°C, the minimum concentration that inhibited growth of the bacteria was determined and shown as MIC also in Table 1.
(§2) The minimum growth inhibitory concentration was determined for each of the 21 standard strains shown in Table 3, according to the same method as used in Test Example 1.
(§3) In the test, FMOX (flomoxef), CTM (cefotiam) and CEZ (cefazolin) were used as control agents.

A. faecalis ATCC3750 = assay: MIC against standard strains (Test Example 3); type: cell-based; details: Alcaligenes faecalis
Method: as §1, §2, §3

B. subtilis ATCC6633 = assay: MIC against standard strains (Test Example 3); type: cell-based; details: Bacillus subtilis
Method: as §1, §2, §3

C. freundii ATCC8090 = assay: MIC against standard strains (Test Example 3); type: cell-based; details: Citrobacter freundii
Method: as §1, §2, §3

E. cloacae ATCC13407 = assay: MIC against standard strains (Test Example 3); type: cell-based; details: Enterobacter cloacae
Method: as §1, §2, §3

E. coli CSH2 (RE45) = assay: MIC against standard strains (Test Example 3); type: cell-based; details: Escherichia coli
Method: as §1, §2, §3

E. coli CSH2 (RK1) = assay: MIC against standard strains (Test Example 3); type: cell-based; details: Escherichia coli
Method: as §1, §2, §3

E. coli NIHJ JC-2 = assay: MIC against standard strains (Test Example 3); type: cell-based; details: Escherichia coli, NIHJJC2
Method: as §1, §2, §3

K. pneumoniae IFO3317 = assay: MIC against standard strains (Test Example 3); type: cell-based; details: Klebsiella pneumoniae
Method: as §1, §2, §3

K. pneumoniae No. 42 = assay: MIC against standard strains (Test Example 3); type: cell-based; details: Klebsiella pneumoniae
Method: as §1, §2, §3

M. Morganii IFO3848 = assay: MIC against standard strains (Test Example 3); type: cell-based; details: Morganella morganii
Method: as §1, §2, §3

M. luteus ATCC 9341 = assay: MIC against standard strains (Test Example 3); type: cell-based; details: Micrococcus luteus, ATCC9341
Method: as §1, §2, §3

P. aeruginosa NCTC10490 = assay: MIC against standard strains (Test Example 3); type: cell-based; details: Pseudomonas aeruginosa
Method: as §1, §2, §3

P. mirabilis IFO3849 = assay: MIC against standard strains (Test Example 3); type: cell-based; details: Proteus mirabilis
Method: as §1, §2, §3

P. vulugaris OX-19 = assay: MIC against standard strains (Test Example 3); type: cell-based
Method: as §1, §2, §3

S. aureus 167 = assay: MIC against standard strains (Test Example 3); type: cell-based; details: Staphylococcus aureus
Method: as §1, §2, §3

S. aureus 195 = assay: MIC against standard strains (Test Example 3); type: cell-based; details: Staphylococcus aureus
Method: as §1, §2, §3

S. aureus 209p JC-1 = assay: MIC against standard strains (Test Example 3); type: cell-based; details: Staphylococcus aureus
Method: as §1, §2, §3

S. aureus Smith = assay: MIC against standard strains (Test Example 3); type: cell-based; details: Staphylococcus aureus
Method: as §1, §2, §3

S. epidemidis IAM1296 = assay: MIC against standard strains (Test Example 3); type: cell-based
Method: as §1, §2, §3

S. marcescens IAM1184 = assay: MIC against standard strains (Test Example 3); type: cell-based; details: Serratia marcescens
Method: as §1, §2, §3

clinically isolated MRSA [1] = assay: Antibacterial potency against clinically isolated MRSA (Test Example 4); type: cell-based, methicillin-resistant Staphylococcus aureus; details: Staphylococcus aureus
Method: (§4) 52 strains of clinically isolated MRSA were used, and MIC was determined for each of the strains according to the standard method of the Japan Chemotherapical Society as in Test Example 1. The minimum growth inhibitory concentration which inhibited growth of 50% of the strains tested was expressed as MIC50 (µg/ml), and the minimum growth inhibitory concentration which inhibited growth of 90% of the strains was expressed as MIC90 (µg/ml).
MIC 50 and MIC 90 were determined for each of the 52 strains of clinically isolated MRSA according to the same method as used in Test Example 2.
VCM (vancomycin) was used as control agent.

clinically isolated MRSA [2] = assay: Antibacterial potency against clinically isolated MRSA (Test Example 2); type: cell-based, methicillin-resistant Staphylococcus aureus; details: Staphylococcus aureus, 52 strains of clinically isolated MRSA; for MIC50: concentration inhibiting growth of 50% of the strains (Test Example 2); for MIC90: concentration inhibiting growth of 90% of the strains (Test Example 2)
Method: A test on the antibacterial potency against clinically isolated MRSA was conducted in the following way.
as §4
In this test, FMOX (flomoxef), IPM/CS (imipenem/cilastatin), CMZ (cefmetazole), MINO (minocycline) and DMPPC (methicillin) were used as control agents.

NC(=O)Oc1ccc[n+](CC2=C(C(=O)[O-])N3C(=O)[C@@H](NC(=O)/C(=N\O)c4csc(N)n4)[C@H]3SC2)c1 [Compound (8), 7β-[2-(2-aminothiazol-4-yl)-2-syn-hydroxyiminoacetamido]-3-[(3-carbamoyloxy-1-pyridinio)methyl]-3-cephem-4-carboxylic acid chloride]
MIC (A. calcoaceticos T59): 25 µg/mL
MIC (A. faecalis ATCC3750; ATCC3750): 0.78 µg/mL
MIC (B. subtilis ATCC6633; ATCC6633): 0.39 µg/mL
MIC (C. freundii ATCC8090; ATCC8090): 0.39 µg/mL
MIC (E. cloacae ATCC13407; ATCC13407): 1.56 µg/mL
MIC (E. coli CSH2 (RE45)): 0.2 µg/mL
MIC (E. coli CSH2 (RK1)): 0.39 µg/mL
MIC (E. coli NIHJ JC-2): 0.1 µg/mL
MIC (K. pneumoniae IFO3317; IFO3317): 0.1 µg/mL
MIC (K. pneumoniae No. 42; NO.42): 0.39 µg/mL
MIC (M. Morganii IFO3848; IFO3848): 0.05 µg/mL
MIC (M. luteus ATCC 9341): 0.1 µg/mL
MIC (P. aeruginosa NCTC10490; NCTC10490): 100 µg/mL
MIC (P. mirabilis IFO3849; IFO3849): 0.1 µg/mL
MIC (P. vulugaris OX-19): 0.2 µg/mL
MIC (S. aureus 167; MRSA): 50 µg/mL
MIC (S. aureus 195; MRSA): 25 µg/mL
MIC (S. aureus 209p JC-1; 209P): 0.78 µg/mL
MIC (S. aureus Smith): 1.56 µg/mL
MIC (S. epidemidis IAM1296): 0.39 µg/mL
MIC (S. marcescens IAM1184; IAM1184): 0.39 µg/mL
MIC50 (clinically isolated MRSA [1]; MRSA): 8.34 µg/mL
MIC90 (clinically isolated MRSA [1]; MRSA): 37.9 µg/mL

Nc1nc(/C(=N/O)C(=O)N[C@@H]2C(=O)N3C(C(=O)[O-])=C(C[n+]4cccc(-c5csc(N)n5)c4)CS[C@H]23)cs1 [Compound (9), 7β-[2-(2-aminothiazol-4-yl)-2-syn-hydroxyiminoacetamido]-3-[[3-(2-aminothiazol-4-yl)-1-pyridinio]methyl]-3-cephem-4-carboxylic acid chloride]
MIC (A. calcoaceticos T59; A. calcoaceticos T59 (Test Example 3), read-out: MIC): 12.5 µg/mL
MIC (A. faecalis ATCC3750; A. faecalis ATCC3750 (Test Example 3), read-out: MIC): 1.56 µg/mL
MIC (B. subtilis ATCC6633; B. subtilis ATCC6633 (Test Example 3), read-out: MIC): 0.2 µg/mL
MIC (C. freundii ATCC8090; C. freundii ATCC8090 (Test Example 3), read-out: MIC): 0.2 µg/mL
MIC (E. cloacae ATCC13407; E. cloacae ATCC13407 (Test Example 3), read-out: MIC): 0.78 µg/mL
MIC (E. coli CSH2 (RE45)): 0.39 µg/mL
MIC (E. coli CSH2 (RK1)): 0.39 µg/mL
MIC (E. coli NIHJ JC-2; E. coli NIHJ JC-2 (Test Example 3), read-out: MIC): 0.2 µg/mL
MIC (K. pneumoniae IFO3317; K. pneumoniae IFO3317 (Test Example 3), read-out: MIC): 0.2 µg/mL
MIC (K. pneumoniae No. 42; K. pneumoniae No. 42 (Test Example 3), read-out: MIC): 0.78 µg/mL
MIC (M. Morganii IFO3848; M. Morganii IFO3848 (Test Example 3), read-out: MIC): 0.1 µg/mL
MIC (M. luteus ATCC 9341; M. luteus ATCC 9341 (Test Example 3), read-out: MIC): 0.05 µg/mL
MIC (P. aeruginosa NCTC10490; P. aeruginosa NCTC10490 (Test Example 3), read-out: MIC): 3.13 µg/mL
MIC (P. mirabilis IFO3849; P. mirabilis IFO3849 (Test Example 3), read-out: MIC): 0.39 µg/mL
MIC (P. vulugaris OX-19; P. vulugaris OX-19 (Test Example 3), read-out: MIC): 0.2 µg/mL
MIC (S. aureus 167; S. aureus 167 (MRSA) (Test Example 3), read-out: MIC): 3.13 µg/mL
MIC (S. aureus 195; S. aureus 195 (MRSA) (Test Example 3), read-out: MIC): 1.56 µg/mL
MIC (S. aureus 209p JC-1; S. aureus 209p JC-1 (Test Example 3), read-out: MIC): 0.2 µg/mL
MIC (S. aureus Smith; S. aureus Smith (Test Example 3), read-out: MIC): 0.2 µg/mL
MIC (S. epidemidis IAM1296; S. epidemidis IAM1296 (Test Example 3), read-out: MIC): 0.05 µg/mL
MIC (S. marcescens IAM1184; S. marcescens IAM1184 (Test Example 3), read-out: MIC): 0.39 µg/mL
MIC50 (clinically isolated MRSA [1]; 52 strains of clinically isolated MRSA, concentration inhibiting growth of 50% of the strains (Test Example 4), read-out: MIC50): 1.48 µg/mL
MIC90 (clinically isolated MRSA [1]; 52 strains of clinically isolated MRSA, concentration inhibiting growth of 90% of the strains (Test Example 4), read-out: MIC90): 2.92 µg/mL

COc1cccc(OC)c1C(=O)N[C@@H]1C(=O)N2[C@@H]1SC(C)(C)[C@@H]2C(=O)O [DMPPC, methicillin, reference compound]
MIC50 (clinically isolated MRSA [2]): 42.5 µg/mL (≈ 112 µM)
MIC90 (clinically isolated MRSA [2]): > 100 µg/mL

CN(C)c1ccc(O)c2c1C[C@H]1C[C@H]3[C@H](N(C)C)C(O)=C(C(N)=O)C(=O)[C@@]3(O)C(O)=C1C2=O [MINO, minocycline, reference compound]
MIC50 (clinically isolated MRSA [2]): 0.2 µg/mL (≈ 0.437 µM)
MIC90 (clinically isolated MRSA [2]): 1.5 µg/mL (≈ 3.28 µM)

CN[C@H](CC(C)C)C(=O)N[C@H]1C(=O)N[C@@H](CC(N)=O)C(=O)N[C@H]2C(=O)N[C@H]3C(=O)N[C@H](C(=O)N[C@H](C(=O)O)c4cc(O)cc(O)c4-c4cc3ccc4O)[C@H](O)c3ccc(c(Cl)c3)Oc3cc2cc(c3O[C@@H]2O[C@H](CO)[C@@H](O)[C@H](O)[C@H]2O[C@H]2C[C@](C)(N)[C@H](O)[C@H](C)O2)Oc2ccc(cc2Cl)[C@H]1O [VCM, vancomycin, reference compound]
MIC50 (clinically isolated MRSA [1]; MRSA): 0.74 µg/mL (≈ 0.511 µM)
MIC90 (clinically isolated MRSA [1]; MRSA): 1.38 µg/mL (≈ 0.952 µM)

— EP0554004A2, “Cephem compounds and antibacterial agents” (KATAYAMA SEIYAKUSYO CO. Ltd., priority 1992, dated 1993)
